# Experimental data published in patent US20080069849A1, “Novel Antimicrobial Peptides” (Dermagen AB, priority 2004, published 2008).
# How the values were obtained:
# [1] = Binding to lipid bilayers by ellipsometry; details: 10 mM Tris, pH 7.4
# Experimental: (§1) Peptides were tested for binding to lipid bilayers, resulting pore formation and peptide secondary structure in the lipid membranes. Lipid membranes investigated included both zwitterionic ones (containing phosphatidylcholine) and anionic ones (containing mixtures of phosphatidylcholine and phosphatidic acid). Lipid membranes were deposited at silica, and the binding of the peptides from 10 mM Tris, pH 7.4, was directly monitored by ellipsometry. […] Pore formation in these liposomes were determined by including carboxyfluorescein in the liposomes and following the fluorescence intensity increase on addition of peptides to the liposomes. Furthermore, the secondary structure of the peptides in the liposome lipid membranes was probed by circular dichroism.
# [2] = Pore formation / carboxyfluorescein leakage of liposomes; details: 10 mM Tris, pH 7.4
# Experimental: as §1
# Escherichia coli 37.4 = assay: Radial diffusion assay (RDA), E. coli 37.4; format: cell-based; details: for RDA (mm) E. coli 37.4 Mean: zone of inhibition
# Experimental: (§2) Escherichia coli 37.4 isolate was originally obtained from a patient with a chronic venous ulcer, while Staphylococcus aureus isolate BD14312 was from a patient with atopic dermatitis. Staphylococcus aureus ATCC29213 and Candida albicans ATCC90028 were both obtained from the Clinical Bacteriology Department at Lund University hospital.
# (§3) Essentially as described earlier (Lehrer et al., J Immunol Methods 137, 167-173, 1991, Andersson et al., Eur J Biochem 271, 1219-1226, 2004) bacteria were grown to mid-logarithmic phase in 10 ml of full-strength (3% w/v) trypticase soy broth (TSB) (Becton-Dickinson, Cockeysville, Md.). The microorganisms were then washed once with 10 mM Tris, pH 7.4.4×10^6 bacterial colony forming units were added to 15 ml of the underlay agarose gel, consisting of 0.03% (w/v) TSB, 1% (w/v) low electroendosmosis type (EEO) agarose (Sigma, St Louis Mo.) and 0.02% (v/v) Tween 20 (Sigma). The underlay was poured into a ø 144 mm petri dish. After agarose solidification, 4 mm-diameter wells were punched and 6 μl of test sample was added to each well. Plates were incubated at 37° C. for 3 hours to allow diffusion of the peptides. The underlay gel was then covered with 15 ml of molten overlay (6% TSB and 1% Low-EEO agarose in dH2O). Antimicrobial activity of a peptide is visualized as a zone of clearing around each well after 18-24 hours of incubation at 37° C.
# [3] = Heparin binding on nitrocellulose with radiolabelled heparin; details: unlabelled heparin 6 mg/ml
# Experimental: Peptides were tested for heparin binding activities. Peptides were applied on nitrocellulose membranes (Hybond, Amersham Biosciences). Membranes were blocked (PBS, pH 7.4, 0.25% Tween 20, 3% bovine serum albumin) for one hour and incubated with radiolabelled heparin for one hour in the same buffer. […] The membranes were washed (3×10 min in PBS, pH 7.4, 0.25% Tween 20). A Bas 2000 radio imaging system (Fuji) was used for visualization of radioactivity.
# [4] = test system: Pseudomonas aeruginosa 15159; assay: Radial diffusion assay (RDA), P. aeruginosa 15159; format: cell-based; details: 100 μM of peptides, n=9
# Experimental: as §3
# Based on the criteria defined in EXAMPLE 1 several new variants with increased positive net charge, high helicity and increased amphipathicity were designed and synthesized. In order to rationally test as many different variants as possible a PEP screen library was utilized as described above. […]
# [5] = test system: Staphylococcus aureus isolate BD14312; assay: Radial diffusion assay (RDA), S. aureus BD14312; format: cell-based; details: zone of inhibition; mean of three measurements; Table 1
# Experimental: as §2, §3
# [6] = test system: Staphylococcus aureus ATCC29213; assay: Radial diffusion assay (RDA), S. aureus ATCC29213; format: cell-based; details: zone of inhibition
# Experimental: as §2, §3
# [7] = test system: Candida albicans ATCC90028; assay: Radial diffusion assay (RDA), Candida ATCC90028; format: cell-based; details: zone of inhibition; mean of three measurements; Table 1
# Experimental: as §2, §3
# [8] = Table 2, second generation PEPscreen
Compound,binding to lipid membranes [1],"pore formation and leakage of liposomes, order of efficiency [2]","RDA mean value, E. coli (Escherichia coli 37.4; 100 μM of peptides, n=9)","heparin binding, competition by unlabelled heparin [3]","RDA mean value, P. aeruginosa [4]",RDA (mm) E. coli 37.4 Mean (Escherichia coli 37.4; [8]) [mm],"RDA (mm) E. coli 37.4 Mean (Escherichia coli 37.4; mean of six measurements, Table 1) [mm]",RDA (mm) S. aureus BD14312 Mean [5] [mm],"RDA (mm) S. aureus ATCC29213 Mean [6, 8] [mm]","RDA (mm) S. aureus ATCC29213 Mean ([6]; mean of three measurements, Table 1) [mm]",RDA (mm) Candida ATCC90028 Mean [7] [mm]
CNYITELSSQHASASHLGLAR [CNY21R-S],CNY21 shows a higher binding tendency than CNY21 R-S,CNY21H-L≈CNY21H-K>CNY21>CNY21H-P≧CNY21 R-S,–,–,–,–,–,–,–,–,–
CNYITELRRQHARASHLGLAR [CNY21],binds to zwitterionic and anionic lipid membranes,CNY21H-L≈CNY21H-K>CNY21>CNY21H-P≧CNY21 R-S,6.02,inhibited the binding,5.00,–,–,–,–,–,–
"CC[C@H](C)[C@H](NC(=O)[C@H](CCCCN)NC(=O)[C@H](CCC(=O)O)NC(=O)[C@H](CCCCN)NC(=O)[C@H](CO)NC(=O)[C@H](CCCCN)NC(=O)[C@H](CCCNC(=N)N)NC(=O)[C@H](Cc1ccccc1)NC(=O)[C@H](Cc1ccccc1)NC(=O)[C@H](CC(=O)O)NC(=O)CNC(=O)[C@H](CC(C)C)NC(=O)[C@@H](N)CC(C)C)C(=O)NCC(=O)N[C@@H](CCCCN)C(=O)N[C@@H](CCC(=O)O)C(=O)N[C@@H](Cc1ccccc1)C(=O)N[C@@H](CCCCN)C(=O)N[C@@H](CCCNC(=N)N)C(=O)N[C@H](C(=O)N[C@H](C(=O)N[C@@H](CCC(N)=O)C(=O)N[C@@H](CCCNC(=N)N)C(=O)N[C@H](C(=O)N[C@@H](CCCCN)C(=O)N[C@@H](CC(=O)O)C(=O)N[C@@H](Cc1ccccc1)C(=O)N[C@@H](CC(C)C)C(=O)N[C@@H](CCCNC(=N)N)C(=O)N[C@@H](CC(N)=O)C(=O)N[C@@H](CC(C)C)C(=O)N[C@H](C(=O)N1CCC[C@H]1C(=O)N[C@@H](CCCNC(=N)N)C(=O)N[C@H](C(=O)N[C@@H](CCC(=O)O)C(=O)N[C@@H](CO)C(=O)O)[C@@H](C)O)C(C)C)[C@@H](C)CC)C(C)C)[C@@H](C)CC [LL37, reference compound]",–,–,–,–,–,5.604,3.529,1.285,8.755,2.215,2.43
